In PubChem BioAssay AID256 (DTP/NCI, 2004) one finds T/C data, which are given here for 19 compounds.

The test system of this assay is CD2F1 mice, L1210 leukemia ip, survival T/C. Kind of assay: NCI In Vivo Anticancer Drug Screen. Data for tumor model L1210 Leukemia (intraperitoneal) in CD2F1 (CDF1) mice. The following applies: higher = longer survival. The method, boiled down:
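Ratio T/C, where T is the treated-group value and C the vehicle-dosed control value, from mice implanted with a transplantable tumor.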

[1] abbreviates: endpoint: mean survival time, dose: 100.0 mg/kg/injection, schedule: Q04DX003 (ip), vehicle: saline with Tween-80.
The mark [2] stands for this setting: endpoint: mean survival time, dose: 200.0 mg/kg/injection, schedule: Q04DX003 (ip), vehicle: saline with Tween-80.
[3] abbreviates: endpoint: mean survival time, dose: 400.0 mg/kg/injection, schedule: Q04DX003 (ip), vehicle: saline with Tween-80.
Where [4] appears, read: endpoint: mean survival time, dose: 100.0 mg/kg/injection, schedule: Q01DX001 (ip), vehicle: saline with Tween-80.
Setting [5] is: endpoint: mean survival time, dose: 100.0 mg/kg/injection, schedule: Q01DX009 (ip), vehicle: saline with Tween-80.
[6] abbreviates: endpoint: mean survival time, dose: 200.0 mg/kg/injection, schedule: Q01DX009 (ip), vehicle: saline with Tween-80.

Values joined by “and” are separate entries in the source; they are usually repeats but may differ in a detail not shown here. Equal values may be shown once. Toxic doses and inconclusive results are not listed.

Turning to `CCc1ccc2c(c1)N(CCCN(CCCl)CCCl)c1ccccc1S2`, the T/C is 97 % of control (endpoint: mean survival time, dose: 18.0 mg/kg/injection, schedule: Q01DX001 (ip), vehicle: saline); 108 % of control (endpoint: mean survival time, dose: 28.0 mg/kg/injection, schedule: Q01DX001 (ip), vehicle: saline); 103 % of control (endpoint: mean survival time, dose: 40.0 mg/kg/injection, schedule: Q01DX001 (ip), vehicle: saline); 90 % of control (endpoint: mean survival time, dose: 60.0 mg/kg/injection, schedule: Q01DX001 (ip), vehicle: saline with Tween-80).
As to `S=C(NCCc1ccccc1)Nc1ccccc1`, the T/C is, setting by setting: under setting [1], 97 % of control; under setting [2], 95 % of control; under setting [3], 95 % of control.
For the compound `CC(C)OC(=O)Nc1ccc(F)cc1F`, the T/C runs as follows: under setting [1], 96 % of control; under setting [2], 102 % of control; under setting [3], 98 % of control.
Regarding `O=c1oc2c(O)c(O)cc3c(=O)oc4c(O)c(O)cc1c4c23`, the T/C is, setting by setting: (endpoint: mean survival time, dose: 12.5 mg/kg/injection, schedule: Q01DX009 (ip), vehicle: Klucel (hydroxypropylcellulose) (HPC)) 100 % of control; (endpoint: mean survival time, dose: 25.0 mg/kg/injection, schedule: Q01DX009 (ip), vehicle: Klucel (hydroxypropylcellulose) (HPC)) 113 % of control; (endpoint: mean survival time, dose: 50.0 mg/kg/injection, schedule: Q01DX009 (ip), vehicle: Klucel (hydroxypropylcellulose) (HPC)) 113 % of control; (endpoint: mean survival time, dose: 100.0 mg/kg/injection, schedule: Q01DX009 (ip), vehicle: Klucel (hydroxypropylcellulose) (HPC)) 106 % of control; (endpoint: mean survival time, dose: 200.0 mg/kg/injection, schedule: Q01DX009 (ip), vehicle: Klucel (hydroxypropylcellulose) (HPC)) 95 % of control; (endpoint: mean survival time, dose: 400.0 mg/kg/injection, schedule: Q01DX009 (ip), vehicle: Klucel (hydroxypropylcellulose) (HPC)) 103 % of control.
`Nc1ncnc2c1c1c(=O)[nH]c(=O)[nH]c1n2C1OC(CO)C(O)C1O` (stereo unspecified): the T/C (endpoint: mean survival time, dose: 12.5 mg/kg/injection, schedule: Q01DX005 (ip), vehicle: distilled water + Tween-80) is 111 % of control; the T/C (endpoint: mean survival time, dose: 25.0 mg/kg/injection, schedule: Q01DX005 (ip), vehicle: distilled water + Tween-80) is 116 % of control; the T/C (endpoint: mean survival time, dose: 50.0 mg/kg/injection, schedule: Q01DX005 (ip), vehicle: distilled water + Tween-80) was 119 % of control; the T/C (endpoint: mean survival time, dose: 100.0 mg/kg/injection, schedule: Q01DX005 (ip), vehicle: distilled water + Tween-80) is 158 % of control; the T/C (endpoint: mean survival time, dose: 200.0 mg/kg/injection, schedule: Q01DX005 (ip), vehicle: distilled water + Tween-80) is 172 % of control; the T/C (endpoint: mean survival time, dose: 400.0 mg/kg/injection, schedule: Q01DX005 (ip), vehicle: distilled water + Tween-80) was 208 % of control. For the same compound, the T/C is 114 % of control (endpoint: median survival time, dose: 25.0 mg/kg/injection, schedule: Q01DX009 (ip), vehicle: distilled water + Tween-80); 115 % of control and 109 % of control (endpoint: median survival time, dose: 50.0 mg/kg/injection, schedule: Q01DX009 (ip), vehicle: distilled water + Tween-80); 121 % of control and 110 % of control (endpoint: median survival time, dose: 100.0 mg/kg/injection, schedule: Q01DX009 (ip), vehicle: distilled water + Tween-80); 105 % of control (endpoint: median survival time, dose: 400.0 mg/kg/injection, schedule: Q01DX009 (ip), vehicle: distilled water + Tween-80).
Turning to `NCCc1nc(N)nc(N)c1-c1ccc(Cl)cc1`, the T/C is 103 % of control under setting [4] and 97 % of control (endpoint: mean survival time, dose: 200.0 mg/kg/injection, schedule: Q01DX001 (ip), vehicle: saline with Tween-80).
With `c1ccc2c3c(c4c(c2c1)CN(C1CCCCC1)CO4)OCN(C1CCCCC1)C3`, the T/C is, setting by setting: (endpoint: median survival time, dose: 0.19 mg/kg/injection, schedule: Q01DX009 (ip), vehicle: other) 101 % of control; (endpoint: median survival time, dose: 0.38 mg/kg/injection, schedule: Q01DX009 (ip), vehicle: other) 101 % of control; (endpoint: median survival time, dose: 0.75 mg/kg/injection, schedule: Q01DX009 (ip), vehicle: other) 98 % of control; (endpoint: median survival time, dose: 1.5 mg/kg/injection, schedule: Q01DX009 (ip), vehicle: other) 98 % of control.
On to `C/C(=N\N)c1ccc(Cl)cc1`, for which the T/C was 103 % of control under setting [1], 123 % of control under setting [2] and 109 % of control under setting [3].
On to `Cn1c(-c2ccc(/C=N\N3CCN(/N=C/c4ccc(-c5c[n+]6ccsc6n5C)cc4)CC3)cc2)c[n+]2ccsc12`, for which the T/C (endpoint: median survival time, dose: 0.75 mg/kg/injection, schedule: Q01DX005 (ip), vehicle: saline with Tween-80) was 113 % of control; the T/C (endpoint: median survival time, dose: 1.5 mg/kg/injection, schedule: Q01DX005 (ip), vehicle: saline with Tween-80) is 115 % of control; the T/C (endpoint: median survival time, dose: 3.0 mg/kg/injection, schedule: Q01DX005 (ip), vehicle: saline with Tween-80) is 116 % of control.
In the case of `O=[N+]([O-])c1ccc(S(=O)(=O)C/C=C/CCl)c([N+](=O)[O-])c1`, the T/C was 102 % of control (endpoint: mean survival time, dose: 25.0 mg/kg/injection, schedule: Q01DX009 (ip), vehicle: saline with Tween-80); 95 % of control (endpoint: mean survival time, dose: 50.0 mg/kg/injection, schedule: Q01DX009 (ip), vehicle: saline with Tween-80); 94 % of control under setting [4].
For `O=C(O)CC1NCCC12OCCO2` (stereo unspecified), the T/C (endpoint: mean survival time, dose: 100.0 mg/kg/injection, schedule: Q01DX001 (ip), vehicle: saline) was 97 % of control; the T/C (endpoint: mean survival time, dose: 100.0 mg/kg/injection, schedule: Q01DX009 (ip), vehicle: saline) is 98 % of control; the T/C (endpoint: mean survival time, dose: 200.0 mg/kg/injection, schedule: Q01DX001 (ip), vehicle: saline) was 102 % of control; the T/C (endpoint: mean survival time, dose: 200.0 mg/kg/injection, schedule: Q01DX009 (ip), vehicle: saline) was 98 % of control; the T/C (endpoint: mean survival time, dose: 400.0 mg/kg/injection, schedule: Q01DX001 (ip), vehicle: saline) was 92 % of control; the T/C (endpoint: mean survival time, dose: 400.0 mg/kg/injection, schedule: Q01DX009 (ip), vehicle: saline) was 101 % of control.
As to `COC(=O)C1C2CCCN2OC1(C)CO` (stereo unspecified), the T/C (endpoint: median survival time, dose: 7.5 mg/kg/injection, schedule: Q01DX005 (ip), vehicle: saline) was 98 % of control; the T/C (endpoint: median survival time, dose: 15.0 mg/kg/injection, schedule: Q01DX005 (ip), vehicle: saline) was 101 % of control; the T/C (endpoint: median survival time, dose: 30.0 mg/kg/injection, schedule: Q01DX005 (ip), vehicle: saline) was 96 % of control; the T/C (endpoint: median survival time, dose: 60.0 mg/kg/injection, schedule: Q01DX005 (ip), vehicle: saline) was 106 % of control; the T/C (endpoint: median survival time, dose: 120.0 mg/kg/injection, schedule: Q01DX005 (ip), vehicle: saline) was 104 % of control.
For the compound `CCOC(=O)Nc1cccnc1`, the T/C is 104 % of control (endpoint: mean survival time, dose: 75.0 mg/kg/injection, schedule: Q01DX001 (ip), vehicle: saline with Tween-80); 98 % of control (endpoint: mean survival time, dose: 150.0 mg/kg/injection, schedule: Q01DX001 (ip), vehicle: saline with Tween-80); 106 % of control (endpoint: mean survival time, dose: 300.0 mg/kg/injection, schedule: Q01DX001 (ip), vehicle: saline with Tween-80).
Regarding `O=C(CNC(=O)Nc1cccc(C(F)(F)F)c1)NNC(=O)Nc1ccc(Cl)c([N+](=O)[O-])c1`, the T/C runs as follows: under setting [5], 89 % of control; under setting [6], 86 % of control.
On to `N#C/C(=C\C1CCC2OCOC2C1)C1CCC([N+](=O)[O-])CC1` (stereo unspecified), for which the T/C (endpoint: mean survival time, dose: 100.0 mg/kg/injection, schedule: Q04DX002 (ip), vehicle: saline with Tween-80) was 97 % of control; the T/C (endpoint: mean survival time, dose: 200.0 mg/kg/injection, schedule: Q04DX002 (ip), vehicle: saline with Tween-80) is 87 % of control; the T/C (endpoint: mean survival time, dose: 400.0 mg/kg/injection, schedule: Q04DX002 (ip), vehicle: saline with Tween-80) was 91 % of control.
Turning to `Cc1cccnc1NC(=O)/C=C/C(=O)O`, the T/C is, setting by setting: (endpoint: mean survival time, dose: 12.5 mg/kg/injection, schedule: Q04DX003 (ip), vehicle: saline with Tween-80) 96 % of control; (endpoint: mean survival time, dose: 25.0 mg/kg/injection, schedule: Q04DX003 (ip), vehicle: saline with Tween-80) 101 % of control; (endpoint: mean survival time, dose: 50.0 mg/kg/injection, schedule: Q04DX003 (ip), vehicle: saline with Tween-80) 104 % of control.
As for `CC1(C)CCC2(C(=O)O)CCC3(C)C(=CCC4C5(C)CC(O)C(OC6OC(CO)C(O)C(O)C6O)C(C)(CO)C5C(O)CC43C)C2C1` (stereo unspecified), the T/C (endpoint: mean survival time, dose: 50.0 mg/kg/injection, schedule: Q04DX002 (ip), vehicle: saline with Tween-80) is 102 % of control.
Take `COc1ccc(C(=O)c2ccccc2NC(C)=O)cc1`: the T/C under setting [5] was 98 % of control; the T/C under setting [6] is 101 % of control; the T/C (endpoint: mean survival time, dose: 400.0 mg/kg/injection, schedule: Q01DX009 (ip), vehicle: saline with Tween-80) is 98 % of control.
With `CC(=O)c1ccc(Oc2ccc(/C(C)=N\N=C(N)N)cc2)cc1`, the T/C (endpoint: mean survival time, dose: 25.0 mg/kg/injection, schedule: Q04DX003 (ip), vehicle: saline) is 100 % of control; the T/C (endpoint: mean survival time, dose: 50.0 mg/kg/injection, schedule: Q04DX003 (ip), vehicle: saline) is 108 % of control; the T/C (endpoint: mean survival time, dose: 75.0 mg/kg/injection, schedule: Q01DX001 (ip), vehicle: other) is 100 % of control; the T/C (endpoint: mean survival time, dose: 150.0 mg/kg/injection, schedule: Q01DX001 (ip), vehicle: other) was 112 % of control.
